Measured values taken from US11578087B2, “Oxaborole esters and uses thereof” (priority 2016, dated 2023).

System: T. cruzi amastigote (Td Tomato-modified) in Vero cells
Test: In vitro IC50 measurement of T. cruzi amastigote killing using Td Tomato-modified T. cruzi
Format: cell-based
Settings: Trypanosoma cruzi, 72 h, fluorescence, read-out: IC50: I Org. amastigote Growth T. cruzi 3 d
Description: Example 254. In Vitro IC50 Measurement of T. cruzi Amastigote Killing Using Td Tomato-Modified T. cruzi
The T. cruzi parasites used in this assay were genetically modified to express Td Tomato fluorescent protein. Vero cells (African green monkey kidney epithelial cells) were harvested from continuous cultures using trypsin and added to the inner 60 wells of 96-well Greiner Bio One plates (plate catalog #655090) at 200 ul/well of […]. Cells were allowed to adhere for 1 h before infection with T. cruzi. T. cruzi for infection were harvested from previously-infected Vero cells, washed, pelleted and resuspended at 5×10^6/mL. 50 uL of parasites were added to each well containing Vero cells. Compounds were prepared from 5 mM stock concentrations in DMSO to final concentrations in wells ranging from 5 uM to 5 nM. Wells were provided for negative controls, lacking compounds. Plates were placed into a 37° C. incubator for 20 min, then a “Day 0” reading was taken on a Synergy H4 plate reader to record initial fluorescence levels, at 544 (excitation) and 612 nm (emission). 96-well plates were placed in Tupperware containers with wet paper towels and incubated at 37° C. incubator for 72 h. After 72 h plates were reread (Day 3 reading) and data analyzed using Excel and/or Graphpad software. Day 0 fluorescence was subtracted from Day 3 to remove input parasite fluorescence. Growth curves are generated and 50% and 90% inhibitory concentrations are determined by nonlinear regression analysis.

Structure (SMILES)	IC50
COCC1(COC(=O)[C@@H](NC(=O)c2ccc3c(c2C)B(O)OC3)C(C)C)COC1 [Example 6-158, (3-(Methoxymethyl)oxetan-3-yl)methyl (1-hydroxy-7-methyl-1,3-dihydrobenzo[c][1,2]oxaborole-6-carbonyl)-L-valinate]	21 to 999 nM
CC(C)[C@H](NC(=O)c1ccc2c(c1)B(O)OC2)C(=O)OCc1ccc(F)c(F)c1 [Example 6-185, 3,4-difluorobenzyl (1-hydroxy-1,3-dihydrobenzo[c][1,2]oxaborole-6-carbonyl)-L-valinate]	21 to 999 nM
Cc1c(C(=O)N[C@H](C(=O)OCc2cccnc2)C(C)C)ccc2c1B(O)OC2 [Example 6-187, Pyridin-3-ylmethyl (1-hydroxy-7-methyl-1,3-dihydrobenzo[c][1,2]oxaborole-6-carbonyl)-L-valinate]	≤ 20 nM
Cc1c(C(=O)N[C@H](C(=O)OCc2ccccn2)C(C)C)ccc2c1B(O)OC2 [Example 6-191, Pyridin-2-ylmethyl (1-hydroxy-7-methyl-1,3-dihydrobenzo[c][1,2]oxaborole-6-carbonyl)-L-valinate]	≤ 20 nM
COc1c(C(=O)N[C@H](C(=O)OCc2ccccc2)C(C)C)ccc2c1B(O)OC2 [Example 6-194, Benzyl (1-hydroxy-7-methoxy-1,3-dihydrobenzo[c][1,2]oxaborole-6-carbonyl)-L-valinate]	21 to 999 nM
COc1c(C(=O)N[C@H](C(=O)OCc2ccc(F)cc2)C(C)C)ccc2c1B(O)OC2 [Example 6-195, 4-fluorobenzyl (1-hydroxy-7-methoxy-1,3-dihydrobenzo[c][1,2]oxaborole-6-carbonyl)-L-valinate]	21 to 999 nM
Cc1c(C(=O)N[C@H](C(=O)O[C@H](C)c2ccccc2)C(C)C)ccc2c1B(O)OC2 [Example 6-198, (R)-1-phenylethyl (1-hydroxy-7-methyl-1,3-dihydrobenzo[c][1,2]oxaborole-6-carbonyl)-L-valinate]	≤ 20 nM
Cc1c(C(=O)N[C@H](C(=O)O[C@@H](C)c2ccccc2)C(C)C)ccc2c1B(O)OC2 [Example 6-199, (S)-1-phenylethyl (1-hydroxy-7-methyl-1,3-dihydrobenzo[c][1,2]oxaborole-6-carbonyl)-L-valinate]	21 to 999 nM
Cc1c(C(=O)N[C@H](C(=O)OCc2cncc(N3CCNCC3)n2)C(C)C)ccc2c1B(O)OC2 [Example 6-205, (6-(piperazin-1-yl)pyrazin-2-yl)methyl (1-hydroxy-7-methyl-1,3-dihydrobenzo[c][1,2]oxaborole-6-carbonyl)-L-valinate]	≥ 1000 nM
Cc1c(C(=O)N[C@H](C(=O)OCc2cccc(N3CCNCC3)n2)C(C)C)ccc2c1B(O)OC2 [Example 6-213, (6-(piperazin-1-yl)pyridin-2-yl)methyl (1-hydroxy-7-methyl-1,3-dihydrobenzo[c][1,2]oxaborole-6-carbonyl)-L-valinate]	≥ 1000 nM
Cc1c(C(=O)N[C@H](C(=O)OCCN2CCC3(CC2)COC3)C(C)C)ccc2c1B(O)OC2 [Example 6-217, 2-(2-oxa-7-azaspiro[3.5]nonan-7-yl)ethyl (1-hydroxy-7-methyl-1,3-dihydrobenzo[c][1,2]oxaborole-6-carbonyl)-L-valinate]	≥ 1000 nM
Cc1c(C(=O)N[C@H](C(=O)OCC2COCCO2)C(C)C)ccc2c1B(O)OC2 (stereo partly drawn) [Example 6-227, (1,4-dioxan-2-yl)methyl (1-hydroxy-7-methyl-1,3-dihydrobenzo[c][1,2]oxaborole-6-carbonyl)-L-valinate]	≤ 20 nM
Cc1c(C(=O)N[C@H](C(=O)OCc2ccccn2)C(C)(C)O)ccc2c1B(O)OC2 [Example 6-230, Pyridin-2-ylmethyl (S)-3-hydroxy-2-(1-hydroxy-7-methyl-1,3-dihydrobenzo[c][1,2]oxaborole-6-carboxamido)-3-methylbutanoate]	21 to 999 nM
Cc1c(C(=O)N[C@H](C(=O)OCCN2CC3CC(C2)O3)C(C)C)ccc2c1B(O)OC2 [Example 6-231, 2-(6-oxa-3-azabicyclo[3.1.1]heptan-3-yl)ethyl (1-hydroxy-7-methyl-1,3-dihydrobenzo[c][1,2]oxaborole-6-carbonyl)-L-valinate]	21 to 999 nM
